We go through 4 compounds from patent EP3046573B1, “AMYLIN ANALOGUES” (Zealand Pharma A/S, priority 2013, dated 2015).

Read-outs that look alike come from different tables or passages of the source. Numbered stars: 1 amine (or outer) side, 2 acyl side, 3 side chain; on linkers, the order of the positions; unused ones are H or OH. Bridge positions count the residues as written; N and C are the ends. Square brackets hold non-standard residues; d marks the D form. Peptide text beside a SMILES is read from it. * marks the point of attachment. C20 diacid = O=C(O)CCCCCCCCCCCCCCCCCCC(=O)*; γGlu = O=C(O)[C@H](CCC(=O)[*:2])N[*:1]; NMeI = CC[C@H](C)[C@H](NC)C(=O)O; Sar = CNCC(=O)O

Series [1] addresses T1, human calcitonin receptor (hCTR2) (Homo sapiens, UniProt P30988).
T1 construct: expressed in transfected cells
T1 sequence (P30988 25-474): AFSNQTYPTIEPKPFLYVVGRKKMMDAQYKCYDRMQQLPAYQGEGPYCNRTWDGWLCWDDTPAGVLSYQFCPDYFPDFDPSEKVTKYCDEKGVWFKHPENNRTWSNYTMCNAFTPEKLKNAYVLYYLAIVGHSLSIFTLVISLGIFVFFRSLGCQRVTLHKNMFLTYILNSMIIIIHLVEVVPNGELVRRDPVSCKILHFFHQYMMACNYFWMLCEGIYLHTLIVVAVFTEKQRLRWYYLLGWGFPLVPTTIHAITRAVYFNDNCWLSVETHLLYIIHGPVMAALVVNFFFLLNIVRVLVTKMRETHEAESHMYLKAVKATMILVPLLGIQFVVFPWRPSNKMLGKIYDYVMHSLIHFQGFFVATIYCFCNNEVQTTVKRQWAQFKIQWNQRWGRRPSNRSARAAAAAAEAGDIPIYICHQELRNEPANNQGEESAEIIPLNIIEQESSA
The experiment in a line: hCTR2 assay: induction of cAMP (AlphaScreen cAMP Assay kit) in COS7 cells expressing hCTR2. It counts as cell-based. Put shortly:
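Cells were seeded one day ahead, washed, then exposed to rising peptide concentrations for 15 min at 37° C in the presence of 100 µM IBMX. After lysis for 10 min at room temperature, cAMP was quantified by AlphaScreen and EC50 values derived by 4PL fitting.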

A short description of series [2]: Solubility assessment (turbidity absorbance at 325 nm). Format: physicochemical. Particulars: stock 2 mg/ml diluted 1:1, ambient temperature (typically 25°C), n=1; for Solubility, Acetate buffer pH 4: 100 mM acetate buffer pH 4.0; for Solubility, Acetate buffer pH 5: 100 mM acetate buffer pH 5.0; for Solubility, Histidine buffer pH 6: 100 mM histidine buffer pH 6.0; for Solubility, Histidine buffer pH 7: 100 mM histidine buffer pH 7.0; for Solubility, Phosphate buffer pH 6: 100 mM phosphate buffer pH 6.0; for Solubility, Phosphate buffer pH 7: 100 mM phosphate buffer pH 7.0; for Solubility, Phosphate buffer pH 7.5: 100 mM phosphate buffer pH7.5. The essentials:
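Read-out: turbidity as absorbance at 325 nm (280 nm also read), single samples, ambient temperature of typically 25°C. Samples were a 1:1 mix of 2 mg/ml stock (water, pH 2.5) with 100 mM acetate, histidine or phosphate buffers spanning pH 4.0–7.5. Cut-off: A325 ≤ 0.02 indicates ≥ 1 mg/ml.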

The mark [3] stands for this setting: cAMP induction in COS7 cells expressing hCTR2, average of a minimum of 3 determinations, read-out: hCTR2 EC50.

One may read the EC50 as the concentration that produces a half-maximal response. For the compound `CC[C@H](C)[C@@H](C(=O)N[C@@H](CC(C)C)C(=O)N[C@H](CO)C(=O)N[C@@H](CO)C(=O)N[C@H](C(=O)N[C@@H](CC(N)=O)C(=O)N[C@H](C(=O)NCC(=O)N[C@@H](CO)C(=O)N[C@@H](CC(N)=O)C(=O)N[C@H](C(=O)N1CCC[C@H]1C(N)=O)[C@@H](C)O)C(C)C)[C@@H](C)O)N(C)C(=O)CN(C)C(=O)[C@H](Cc1ccccc1)NC(=O)[C@H](CC(N)=O)NC(=O)[C@H](CC(N)=O)NC(=O)[C@H](CO)NC(=O)[C@H](CO)NC(=O)[C@H](Cc1c[nH]cn1)NC(=O)[C@H](Cc1c[nH]cn1)NC(=O)[C@H](CC(C)C)NC(=O)[C@H](Cc1ccccc1)NC(=O)[C@H](CCC(=O)O)NC(=O)[C@H](C)NC(=O)[C@H](CC(C)C)NC(=O)[C@H](CCCNC(=N)N)NC(=O)[C@H](CCC(N)=O)NC(=O)[C@@H](NC(=O)[C@H](C)NC(=O)[C@@H]1CSSC[C@H](NC(=O)[C@H](CCCNC(=N)N)NC(=O)CC[C@H](NC(=O)CCCCCCCCCCCCCCCCCCC(=O)O)C(=O)O)C(=O)N[C@@H](CC(N)=O)C(=O)N[C@@H]([C@@H](C)O)C(=O)N[C@@H](C)C(=O)N[C@@H]([C@@H](C)O)C(=O)N1)[C@@H](C)O` [Compound 24, [19CD]-isoGlu-RC()NTATC()ATQRLAEFLHHSSNNF-Gly(Me)-Ile(Me)-L-DSer-STNVGSNTP-NH2] ({C20 diacid-γGlu}-RCNTATCATQRLAEFLHHSSNNF[Sar][NMeI]L[dS]STNVGSNTP-NH2; disulfide 2-7), in series [1] (setting [3]), the EC50 is 130 pM. Moreover, in series [2], the “Solubility, Acetate buffer pH 4” value is “SS (SS indicates solubility ≥ 1mg/ml)”; the “Solubility, Acetate buffer pH 5” value is recorded as “SS (SS indicates solubility ≥ 1mg/ml)”; the “Solubility, Histidine buffer pH 6” value is listed as “SS (SS indicates solubility ≥ 1mg/ml)”; the “Solubility, Histidine buffer pH 7” value is on record as “SS (SS indicates solubility ≥ 1mg/ml)”. Besides, in series [2], the “Solubility, Phosphate buffer pH 6” value is recorded as “SS (SS indicates solubility ≥ 1mg/ml)”; the “Solubility, Phosphate buffer pH 7” value is “SS (SS indicates solubility ≥ 1mg/ml)”; the “Solubility, Phosphate buffer pH 7.5” value is reported as “SS (SS indicates solubility ≥ 1mg/ml)”.

Consider `CC[C@H](C)[C@@H](C(=O)N[C@@H](CC(C)C)C(=O)N[C@@H](CO)C(=O)N[C@H](C(=O)N[C@@H](CC(N)=O)C(=O)N[C@H](C(=O)NCC(=O)N[C@@H](CO)C(=O)N[C@@H](CC(N)=O)C(=O)N[C@H](C(=O)N1CCC[C@H]1C(N)=O)[C@@H](C)O)C(C)C)[C@@H](C)O)N(C)C(=O)[C@H](C)NC(=O)CN(C)C(=O)[C@H](Cc1ccccc1)NC(=O)[C@H](CC(N)=O)NC(=O)[C@H](CC(N)=O)NC(=O)[C@H](CO)NC(=O)[C@H](CO)NC(=O)[C@H](Cc1c[nH]cn1)NC(=O)[C@H](Cc1c[nH]cn1)NC(=O)[C@H](CC(C)C)NC(=O)[C@H](Cc1ccccc1)NC(=O)[C@H](CCC(=O)O)NC(=O)[C@H](C)NC(=O)[C@H](CC(C)C)NC(=O)[C@H](CCCNC(=N)N)NC(=O)[C@H](CCC(N)=O)NC(=O)[C@@H](NC(=O)[C@H](C)NC(=O)[C@@H]1CSSC[C@H](NC(=O)[C@H](CCCNC(=N)N)NC(=O)CC[C@H](NC(=O)CCCCCCCCCCCCCCCCCCC(=O)O)C(=O)O)C(=O)N[C@@H](CC(N)=O)C(=O)N[C@@H]([C@@H](C)O)C(=O)N[C@@H](C)C(=O)N[C@@H]([C@@H](C)O)C(=O)N1)[C@@H](C)O` [Compound 25, [19CD]-isoGlu-RC()NTATC()ATQRLAEFLHHSSNNF-Gly(Me)-A-Ile(Me)-LSTNVGSNTP-NH2] ({C20 diacid-γGlu}-RCNTATCATQRLAEFLHHSSNNF[Sar]A[NMeI]LSTNVGSNTP-NH2; disulfide 2-7), for which, in series [1], the EC50 worked out at 100 pM. In series [2], the “Solubility, Acetate buffer pH 4” value is “SS (SS indicates solubility ≥ 1mg/ml)”; the “Solubility, Acetate buffer pH 5” value was “SS (SS indicates solubility ≥ 1mg/ml)”; the “Solubility, Histidine buffer pH 6” value is recorded as “SS (SS indicates solubility ≥ 1mg/ml)”; the “Solubility, Histidine buffer pH 7” value is “SS (SS indicates solubility ≥ 1mg/ml)”. Besides, in series [2], the “Solubility, Phosphate buffer pH 6” value is given as “SS (SS indicates solubility ≥ 1mg/ml)”; the “Solubility, Phosphate buffer pH 7” value is “SS (SS indicates solubility ≥ 1mg/ml)”; the “Solubility, Phosphate buffer pH 7.5” value is given as “SS (SS indicates solubility ≥ 1mg/ml)”.

As for `CC[C@H](C)[C@@H](C(=O)N[C@@H](CC(C)C)C(=O)N[C@@H](CO)C(=O)N[C@H](C(=O)N[C@@H](CC(N)=O)C(=O)N[C@H](C(=O)NCC(=O)N[C@@H](CO)C(=O)N[C@@H](CC(N)=O)C(=O)N[C@H](C(=O)N1CCC[C@H]1C(N)=O)[C@@H](C)O)C(C)C)[C@@H](C)O)N(C)C(=O)CN(C)C(=O)[C@H](Cc1ccccc1)NC(=O)[C@H](CC(N)=O)NC(=O)[C@H](CC(N)=O)NC(=O)[C@H](CO)NC(=O)[C@H](CO)NC(=O)[C@H](Cc1c[nH]cn1)NC(=O)[C@H](Cc1c[nH]cn1)NC(=O)[C@H](CC(C)C)NC(=O)[C@H](Cc1ccccc1)NC(=O)[C@H](CCC(=O)O)NC(=O)[C@H](C)NC(=O)[C@H](CC(C)C)NC(=O)[C@H](CCCNC(=N)N)NC(=O)[C@H](CCC(N)=O)NC(=O)[C@@H](NC(=O)[C@H](C)NC(=O)[C@@H]1CSSC[C@H](NC(=O)[C@H](CCCNC(=N)N)NC(=O)CC[C@H](NC(=O)CCCCCCCCCCCCCCCCCCC(=O)O)C(=O)O)C(=O)N[C@@H](CC(N)=O)C(=O)N[C@@H]([C@@H](C)O)C(=O)N[C@@H](C)C(=O)N[C@@H]([C@@H](C)O)C(=O)N1)[C@@H](C)O` [Compound 26, [19CD]-isoGlu-RC()NTATC()ATQRLAEFLHHSSNNF-Gly(Me)-Ile(Me)-LSTNVGSNTP-NH2] ({C20 diacid-γGlu}-RCNTATCATQRLAEFLHHSSNNF[Sar][NMeI]LSTNVGSNTP-NH2; disulfide 2-7), the EC50 in series [1] (setting [3]) worked out at 110 pM. For the same compound, in series [2], the “Solubility, Acetate buffer pH 4” value is listed as “SS (SS indicates solubility ≥ 1mg/ml)”; the “Solubility, Acetate buffer pH 5” value is on record as “SS (SS indicates solubility ≥ 1mg/ml)”; the “Solubility, Histidine buffer pH 6” value is recorded as “SS (SS indicates solubility ≥ 1mg/ml)”; the “Solubility, Histidine buffer pH 7” value is “SS (SS indicates solubility ≥ 1mg/ml)”. Also, in series [2], the “Solubility, Phosphate buffer pH 6” value is recorded as “SS (SS indicates solubility ≥ 1mg/ml)”; the “Solubility, Phosphate buffer pH 7” value is on record as “SS (SS indicates solubility ≥ 1mg/ml)”; the “Solubility, Phosphate buffer pH 7.5” value is on record as “SS (SS indicates solubility ≥ 1mg/ml)”.

Regarding `CC[C@@H](C)[C@@H](NC(=O)[C@H](C)NC(=O)CN(C)C(=O)[C@H](Cc1ccccc1)NC(=O)[C@H](CC(N)=O)NC(=O)[C@H](CC(N)=O)NC(=O)[C@H](CO)NC(=O)[C@H](CO)NC(=O)[C@H](Cc1c[nH]cn1)NC(=O)[C@H](Cc1c[nH]cn1)NC(=O)[C@H](CC(C)C)NC(=O)[C@H](Cc1ccccc1)NC(=O)[C@H](CCC(=O)O)NC(=O)[C@H](C)NC(=O)[C@H](CC(C)C)NC(=O)[C@H](CCCNC(=N)N)NC(=O)[C@H](CCC(N)=O)NC(=O)[C@@H](NC(=O)[C@H](C)NC(=O)[C@@H]1CSSC[C@H](NC(=O)[C@H](CCCNC(=N)N)NC(=O)CC[C@H](NC(=O)CCCCCCCCCCCCCCCCCCC(=O)O)C(=O)O)C(=O)N[C@@H](CC(N)=O)C(=O)N[C@@H]([C@@H](C)O)C(=O)N[C@@H](C)C(=O)N[C@@H]([C@@H](C)O)C(=O)N1)[C@@H](C)O)C(=O)N[C@@H](CC(C)C)C(=O)N[C@@H](CO)C(=O)N[C@@H](CO)C(=O)N[C@H](C(=O)N[C@@H](CC(N)=O)C(=O)N[C@H](C(=O)NCC(=O)N[C@@H](CO)C(=O)N[C@@H](CC(N)=O)C(=O)N[C@H](C(=O)N1CCC[C@H]1C(N)=O)[C@@H](C)O)C(C)C)[C@@H](C)O` [Compound 28, [19CD]-isoGlu-RC()NTATC()ATQRLAEFLHHSSNNF-Gly(Me)-A-DIle-LSSTNVGSNTP-NH2] ({C20 diacid-γGlu}-RCNTATCATQRLAEFLHHSSNNF[Sar]A[dI]LSSTNVGSNTP-NH2; disulfide 2-7), the EC50 in series [1] was determined as 160 pM. Further, in series [2], the “Solubility, Acetate buffer pH 4” value is reported as “SS (SS indicates solubility ≥ 1mg/ml)”; the “Solubility, Acetate buffer pH 5” value is “SS (SS indicates solubility ≥ 1mg/ml)”; the “Solubility, Histidine buffer pH 6” value is “SS (SS indicates solubility ≥ 1mg/ml)”; the “Solubility, Histidine buffer pH 7” value is given as “SS (SS indicates solubility ≥ 1mg/ml)”. For the same compound, in series [2], the “Solubility, Phosphate buffer pH 6” value is “SS (SS indicates solubility ≥ 1mg/ml)”; the “Solubility, Phosphate buffer pH 7” value was “SS (SS indicates solubility ≥ 1mg/ml)”; the “Solubility, Phosphate buffer pH 7.5” value was “SS (SS indicates solubility ≥ 1mg/ml)”.
